In patent US20090298783A1, “Cosmetic Compositions” (Cognis IPanagement GmbH, priority 2006, published 2009) one finds GMCSF released and MTT data, which are given here for five compounds.

Marks after values point to notes of the source that are not given here.

In one series the test system is GMCSF. Description: Nickel-induced GMCSF release from human keratinocytes (ELISA). In kind it is cell-based. The note with it: 48 hours. How it is done: (§1) The soothing potential of silybin, piperin, rhapontin, nortrachelogenine and arctiin was evaluated on primary culture of human keratinocytes treated by a nickel salt (nickel chloride, Sigma) according to the method of Ermolli M, et al. “Nickel, cobalt and chromium-induced cytotoxicity and intracellular accumulation in human HaCaT keratinocytes” [Toxicology. 2001 Feb. 21; 159(1-2): 23-31] and compared to hydrocortisone (HOC; Sigma, France).
(§2) After a growth phase in medium enriched by fetal calf serum, the cells were treated with the nickel salt and with the test compounds. After 48 hours at 37° C., CO2=5%, the level of released GMCSF (ELISA method) and cell viability (MTT test) were determined.
(In general: In an ELISA, binding on a coated surface is turned into a signal by an enzyme label.)

Series [1] relates to primary culture of human keratinocytes. As to the kind of experiment: Cell viability (MTT test) of nickel-treated human keratinocytes. Particulars: nickel salt alone at 0.75 mM, 48 hours. As for the experimental part:
as §1, §2
For orientation: Tetrazolium assays rely on reduction of a dye to a coloured formazan, in cell work by metabolically active cells.

Where [2] appears, read: first set, Ni 0.75 mM (=100) + test compound at 0.001%, mean +/- SEM on 3 separate assays.

`C[C@]12CCC(=O)C=C1CC[C@@H]1[C@@H]2[C@@H](O)C[C@@]2(C)[C@H]1CC[C@]2(O)C(=O)CO` [HOC, hydrocortisone, reference compound]: in the series with GMCSF (second set, Ni 0.75 mM (=100) + test compound at 1 μM, mean on 1 assay in triplicate), the GMCSF released is on record as 52 percentage referring to control.

For the compound `[Cl][Ni][Cl]` [Nickel (Ni), nickel chloride], the MTT is given as 68 +/− 9 percentage referring to control in series [1] (first set, mean +/- SEM on 3 separate assays); “distinctly decreased cell viability” in series [1] (first set, mean +/- SEM on 3 separate assays, listed as nickel); 33 percentage referring to control in series [1] (second set, mean on 1 assay in triplicate).

Consider `O=C(/C=C/C=C/c1ccc2c(c1)OCO2)N1CCCCC1` [piperine, (E,E)-1-[5-(1,3-benzodioxol-5-yl)-1-oxo-2,4-pentadienyl]piperidine], for which the GMCSF released in the series on GMCSF (setting [2]) is 79 +/− 14 percentage referring to control; in the series on GMCSF (first set, Ni 0.75 mM (=100) + test compound at 0.003%, mean +/- SEM on 3 separate assays) it was 29 +/− 13* percentage referring to control; in the series with GMCSF (first set, Ni 0.75 mM (=100) + test compound at 0.003%, mean +/- SEM on 3 separate assays, listed as Piperine), “significantly lowered”.

With `COc1ccc(/C=C/c2cc(O)cc(O[C@@H]3O[C@H](CO)[C@@H](O)[C@H](O)[C@H]3O)c2)cc1O` [rhapontin, 3,3′,5-Trihydroxy-4′-methoxystilbene 3-b-D-glucopyranoside], the GMCSF released with GMCSF (second set, Ni 0.75 mM (=100) + test compound at 0.01%, mean on 1 assay in triplicate) is given as 72 percentage referring to control; with GMCSF (second set, Ni 0.75 mM (=100) + test compound at 0.01%, mean on 1 assay in triplicate, listed as Rhapontin), “lowered”.

Regarding `COc1cc([C@H]2Oc3cc([C@H]4Oc5cc(O)cc(O)c5C(=O)[C@@H]4O)ccc3O[C@@H]2CO)ccc1O` [silybin], the GMCSF released in the series on GMCSF (first set, Ni 0.75 mM (=100) + test compound at 0.0003%, mean +/- SEM on 3 separate assays) is listed as 88 +/− 19 percentage referring to control; in the series with GMCSF (setting [2]), 48 +/− 12* percentage referring to control; with GMCSF (first set, Ni 0.75 mM (=100) + test compound at 0.001%, mean +/- SEM on 3 separate assays, listed as Silybin), “significantly lowered”.
